Test results: publication PMC5612938, “A multiple biomarker assay for quality assessment of botanical drugs using a versatile microfluidic chip” (Scientific Reports, 2017)
Structures can show the parent of a compound that is named as a salt. Marks after values point to notes of the source that are not given here.

Experiments:
[1] = biological target: T1, Thrombin (from human plasma) (Homo sapiens, UniProt P00734); assay: on-chip thrombin inhibition assay (S-2238 hydrolysis, absorbance 405 nm); assay type: biochemical; settings: for thrombin
T1 construct: Thrombin (from human plasma); purchased Sigma-Aldrich; host or cells: human plasma
Procedure: To enhance the performance of the on-chip assay, experimental parameters such as concentrations of enzymes and substrates, substrate reaction time, and incubation time of samples and enzymes were stepwise optimized. The activity of thrombin was determined by measuring the hydrolysis of chromogenic substrate S-2238 (HD-Phe-Pip-Arg-pNA) at 405 nm. As depicted in Fig. 2a, the absorbance increased rapidly along with the elevated concentrations of thrombin, while it reached a plateau at 0.5 U/mL. […] Moreover, it was clear from Fig. 2d that the maximum inhibitory effect of QSYQ sample (I1 of Table 1 in this assay) on thrombin was observed after 60 min of incubation. Therefore, to achieve favorable response and prevent signal saturation, optimal assay conditions for thrombin were determined to be 0.2 U/mL, 0.31 mM, 30 min and 60 min for the final concentrations of thrombin and S-2238, substrate reaction time and incubation time, respectively. […] In this assay, the concentrations of ACE and FAPGG were finally set at 0.027 U/mL and 0.72 mM, where the background value was lower and the reaction time was relatively shorter (30 min).
The optimized protocol was first applied to assess the quality of 11 batches of QSYQ intermediates (Table 1). Enzyme inhibition (in percentages) was employed as an indicator of drug quality and calculated according to the following equations: thrombin inhibition (%) = [1 − (AQSYQ/Ablank)] × 100; ACE inhibition (%) = [1 − (ΔAQSYQ/ΔAblank)] × 100; where AQSYQ and Ablank were the absorbance of the test sample and the blank sample after the enzymatic reaction (the background value was subtracted), and ΔAQSYQ and ΔAblank were the absorbance decrease between 0 min and 30 min of the samples. A scatter plot was generated to display the inhibition result of thrombin and ACE simultaneously. […] Moreover, artificial abnormal samples I6, I7 and I8, each with one abnormal (pre-extracted) herb, presented relatively lower inhibitions compared with I1.
(§1) Thrombin (from human plasma), ACE (from rabbit lung), FAPGG and captopril were purchased from Sigma-Aldrich (St. Louis, USA). S-2238 was obtained from Aglyco (Beijing, China). AEBSF-HCl was purchased from Selleckchem (Houston, USA). Trizma base (Tris) was obtained from Sangon Biotech (Shanghai, China) and dimethyl sulfoxide (DMSO) from J&K Scientific (Beijing, China). All other chemicals were purchased from Sinopharm Chemical (Shanghai, China) unless otherwise indicated. 0.2 M Phosphate buffer (PB, pH 6.5), and 50 mM Tris-HCl buffer (200 mM NaCl, pH 8.3) were prepared as assay buffers for thrombin and ACE, respectively.
MBs (10 mg/mL) were diluted 10 times in PB or Tris-HCl buffer, and 10 μL of the diluted MBs (1 mg/mL) were injected into one channel of the chip using a syringe infusion pump (Harvard Apparatus, USA) and retained by an external magnet. Then, 10 μL of thrombin or ACE solution was added and incubated with MBs for two hours at room temperature to form enzyme-MB complexes. The magnet was manually controlled to move MBs back and forth to enhance the ratio of reaction. Subsequently, MBs were washed twice in assay buffer and magnetically transferred to the other channel through the fluidic bridge, whose opening and closing was controlled by a pneumatic valve. Next, 10 μL of sample solutions of tested drug and 10 μL of enzymatic substrate were sequentially infused to the channel by the pump and incubated with the enzyme. When the enzymatic reaction was finished, the MBs were retained in the channel, and air was injected into the channel from the inlet using a syringe to push all the reacted solution to a 384-well plate. The absorbance of the solution was then monitored at 405 nm (for S-2238) or 340 nm (for FAPGG) using an Infinite F200 spectrophotometer (Tecan, Männedorf, Switzerland). Moreover, after detection, the reaction channel was washed three times by assay buffer to remove unbound constituents. […]

ACE (from rabbit lung) [2] = biological target: T2, ACE (from rabbit lung) (Oryctolagus cuniculus, UniProt P12822); assay: on-chip ACE inhibition assay (FAPGG hydrolysis, absorbance decrease 340 nm); assay type: biochemical; design: key to IC50 (μM) or inhibition rate: /: No obvious inhibition observed; settings: for IC50 (μM) or inhibition rate: symbol / = no obvious inhibition
T2 construct: ACE (from rabbit lung); purchased Sigma-Aldrich; host or cells: rabbit lung
T2 sequence (P12822 34-1310): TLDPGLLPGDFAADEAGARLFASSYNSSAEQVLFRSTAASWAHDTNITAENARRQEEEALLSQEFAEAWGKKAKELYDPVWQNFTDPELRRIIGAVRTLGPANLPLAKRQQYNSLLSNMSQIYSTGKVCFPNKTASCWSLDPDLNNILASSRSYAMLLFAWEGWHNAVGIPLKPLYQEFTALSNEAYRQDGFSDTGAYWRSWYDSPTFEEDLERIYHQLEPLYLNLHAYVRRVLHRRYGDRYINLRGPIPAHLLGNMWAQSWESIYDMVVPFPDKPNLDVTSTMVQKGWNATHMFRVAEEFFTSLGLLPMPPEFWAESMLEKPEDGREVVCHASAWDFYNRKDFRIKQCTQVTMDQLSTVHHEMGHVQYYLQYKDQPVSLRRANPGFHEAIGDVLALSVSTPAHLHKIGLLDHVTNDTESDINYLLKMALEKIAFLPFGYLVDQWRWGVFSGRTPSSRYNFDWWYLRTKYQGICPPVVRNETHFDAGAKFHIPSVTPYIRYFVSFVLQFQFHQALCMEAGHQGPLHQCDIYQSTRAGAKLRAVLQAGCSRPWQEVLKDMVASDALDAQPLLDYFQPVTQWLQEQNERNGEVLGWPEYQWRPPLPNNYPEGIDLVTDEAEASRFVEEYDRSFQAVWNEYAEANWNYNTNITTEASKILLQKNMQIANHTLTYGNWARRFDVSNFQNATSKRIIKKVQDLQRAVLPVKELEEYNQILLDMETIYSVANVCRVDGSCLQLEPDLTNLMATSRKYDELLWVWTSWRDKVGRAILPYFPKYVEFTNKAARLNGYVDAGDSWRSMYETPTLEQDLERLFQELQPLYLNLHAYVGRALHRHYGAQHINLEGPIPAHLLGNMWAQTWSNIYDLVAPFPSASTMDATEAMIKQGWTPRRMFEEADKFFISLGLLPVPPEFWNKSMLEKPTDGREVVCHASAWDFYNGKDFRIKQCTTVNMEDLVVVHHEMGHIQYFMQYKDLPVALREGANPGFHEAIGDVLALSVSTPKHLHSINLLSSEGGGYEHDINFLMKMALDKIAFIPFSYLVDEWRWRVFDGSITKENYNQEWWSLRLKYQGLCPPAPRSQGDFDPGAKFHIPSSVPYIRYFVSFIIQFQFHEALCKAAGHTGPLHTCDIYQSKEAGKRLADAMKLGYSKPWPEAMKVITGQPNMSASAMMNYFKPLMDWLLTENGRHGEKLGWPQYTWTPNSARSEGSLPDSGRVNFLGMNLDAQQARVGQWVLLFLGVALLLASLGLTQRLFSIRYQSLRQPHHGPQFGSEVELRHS
Procedure: To enhance the performance of the on-chip assay, experimental parameters such as concentrations of enzymes and substrates, substrate reaction time, and incubation time of samples and enzymes were stepwise optimized.
The optimized protocol was first applied to assess the quality of 11 batches of QSYQ intermediates (Table 1). Enzyme inhibition (in percentages) was employed as an indicator of drug quality and calculated according to the following equations: thrombin inhibition (%) = [1 − (AQSYQ/Ablank)] × 100; ACE inhibition (%) = [1 − (ΔAQSYQ/ΔAblank)] × 100; where AQSYQ and Ablank were the absorbance of the test sample and the blank sample after the enzymatic reaction (the background value was subtracted), and ΔAQSYQ and ΔAblank were the absorbance decrease between 0 min and 30 min of the samples.
as §1, with “S-2238 was obtained from Aglyco (Beijing, China).” left out
MBs (10 mg/mL) were diluted 10 times in PB or Tris-HCl buffer, and 10 μL of the diluted MBs (1 mg/mL) were injected into one channel of the chip using a syringe infusion pump (Harvard Apparatus, USA) and retained by an external magnet. Then, 10 μL of thrombin or ACE solution was added and incubated with MBs for two hours at room temperature to form enzyme-MB complexes. The magnet was manually controlled to move MBs back and forth to enhance the ratio of reaction. Subsequently, MBs were washed twice in assay buffer and magnetically transferred to the other channel through the fluidic bridge, whose opening and closing was controlled by a pneumatic valve. Next, 10 μL of sample solutions of tested drug and 10 μL of enzymatic substrate were sequentially infused to the channel by the pump and incubated with the enzyme. When the enzymatic reaction was finished, the MBs were retained in the channel, and air was injected into the channel from the inlet using a syringe to push all the reacted solution to a 384-well plate. […] Moreover, after detection, the reaction channel was washed three times by assay buffer to remove unbound constituents. 20 μL of 80% aqueous methanol was then injected and incubated with MBs for one hour to dissociate the bound constituents. The resulting solutions of replicates were combined, evaporated by a centrifugal evaporator, reconstituted in 80% aqueous methanol, centrifuged at 10,000 rpm for 10 min, and analyzed by LC-MS for chemical identification.

ACE (from rabbit lung) [3] = biological target: T2, ACE (from rabbit lung); assay: on-chip affinity screening, binding degree by LC-MS peak area vs protein-free control (ACE); settings: for ACE; [(As − Ac)/As] × 100, sample vs protein-free control, EIC peak area
Excerpt: In addition to quality assessment, the microfluidic chip can also function as “affinity chromatography” to identify bioactive constituents from botanical drugs in a convenient and efficient manner. After the bioassay, the bound phytochemicals were dissociated from the enzymes and accurately identified by LC-MS. The material used for the chambers in microfluidic system, polydimethylsiloxane (PDMS), is apt to adsorb small molecules nonspecifically, thus a protein-free control was applied to reflect the degree of nonspecific binding of compounds to the chip. Peak areas were obtained from the extracted ion chromatography (EIC) in an ion-trap mass spectrometry (IT-MS), and binding degree (binding degree % = [(As − Ac)/As] × 100, where As and Ac were the peak area in the sample and control, respectively) was calculated to indicate binding specificity. […] All these peaks were unambiguously confirmed via comparisons with chemical standards in terms of retention time and mass spectra (Table 2), and five thrombin inhibitors (danshensu, salvianolic acid B, salvianolic acid C, rosmarinic acid and ginsenoside Rg1) and six ACE inhibitors (astragaloside IV, ononin, formononetin, calycosin, danshensu and salvianolic acid B) were preliminarily identified. […] Enzyme inhibition assays of these hit compounds were then performed to verify the screening results. […] Compounds showing an inhibition rate over 70% were subjected to IC50 measurement.
MBs (10 mg/mL) were diluted 10 times in PB or Tris-HCl buffer, and 10 μL of the diluted MBs (1 mg/mL) were injected into one channel of the chip using a syringe infusion pump (Harvard Apparatus, USA) and retained by an external magnet. Then, 10 μL of thrombin or ACE solution was added and incubated with MBs for two hours at room temperature to form enzyme-MB complexes. The magnet was manually controlled to move MBs back and forth to enhance the ratio of reaction. Subsequently, MBs were washed twice in assay buffer and magnetically transferred to the other channel through the fluidic bridge, whose opening and closing was controlled by a pneumatic valve. Next, 10 μL of sample solutions of tested drug and 10 μL of enzymatic substrate were sequentially infused to the channel by the pump and incubated with the enzyme. When the enzymatic reaction was finished, the MBs were retained in the channel, and air was injected into the channel from the inlet using a syringe to push all the reacted solution to a 384-well plate. The absorbance of the solution was then monitored at 405 nm (for S-2238) or 340 nm (for FAPGG) using an Infinite F200 spectrophotometer (Tecan, Männedorf, Switzerland). Moreover, after detection, the reaction channel was washed three times by assay buffer to remove unbound constituents. 20 μL of 80% aqueous methanol was then injected and incubated with MBs for one hour to dissociate the bound constituents. The resulting solutions of replicates were combined, evaporated by a centrifugal evaporator, reconstituted in 80% aqueous methanol, centrifuged at 10,000 rpm for 10 min, and analyzed by LC-MS for chemical identification.
An Agilent 1100 HPLC system (Agilent Technologies, Waldbronn, Germany) coupled with an LCQ Deca XP^plus IT-MS (Thermo Finnigan, San Jose, CA, USA) equipped with an electrospray ionization (ESI) interface was employed for structure elucidation of the bounded constituents. The analysis was performed in negative ionization mode under following operation parameters: scan range m/z 100–1500; capillary voltage −15 V; source voltage −3 kV; capillary temperature 350 °C; sheath gas (N2) 60 arb; auxiliary gas (N2) 20 arb.

IC50 (μM) or inhibition rate (ACE (from rabbit lung) [2]; for ACE)	Binding degree (%) (ACE (from rabbit lung) [3])	ACE inhibition (in words) (ACE (from rabbit lung) [2]; at tested concentrations)	inhibition rate (ACE (from rabbit lung) [2]; for ACE, maximum inhibition rate observed in the assay) [%^d]	Compound	IC50 [1] [µM]
				NCCc1ccc(S(=O)(=O)F)cc1 [AEBSF-HCl, reference compound]	3.91
/^g	19.1^d %			COc1ccc(-c2coc3cc(O)ccc3c2=O)cc1O [Calycosin]	
/^g	53.8^d %			COc1ccc(-c2coc3cc(O)ccc3c2=O)cc1 [Formononetin]	
	52.6^d %	showed ACE inhibitions	30.6	COc1ccc(-c2coc3cc(O[C@@H]4O[C@H](CO)[C@@H](O)[C@H](O)[C@H]4O)ccc3c2=O)cc1 [Ononin]	

Compound	IC50 (μM) or inhibition rate (ACE (from rabbit lung) [2]; for ACE)	Binding degree (%) (ACE (from rabbit lung) [3])	ACE inhibition (in words) (ACE (from rabbit lung) [2]; at tested concentrations)	inhibition rate (ACE (from rabbit lung) [2]; for ACE, maximum inhibition rate observed in the assay) [%^d]	IC50 [1] [µM]
CC(C)(O)[C@@H]1CC[C@](C)([C@H]2[C@@H](O)C[C@@]3(C)[C@@H]4C[C@H](O[C@@H]5O[C@H](CO)[C@@H](O)[C@H](O)[C@H]5O)[C@H]5C(C)(C)[C@@H](O[C@@H]6OC[C@@H](O)[C@H](O)[C@H]6O)CC[C@@]56C[C@@]46CC[C@]23C)O1 [Astragaloside IV]	/^g	28.3^d %			
